Assay results: patent US10336732B2, “1-heterocyclyl isochromanyl compounds and analogs for treating CNS disorders” (Sunovion Pharmaceuticals Inc., priority 2015, dated 2019)

Tested on: mice
Experiment: Neuropharmacological assay (SmartCube), behavioral signature of compound-treated mice
Format: in vivo
Settings: i.p. 15 min before behavioral test, most efficacious dose(s) of 3 doses
Summary of the method: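 Read-out is an automated video-based behavioral signature, scored as per-class probabilities (e.g., anxiolytic, antidepressant) against reference compounds. Dosing was i.p. at three doses, 15 min pre-test, in NMP, polyethylene glycol and propylene glycol. Values shown are from the most efficacious dose(s).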

Row | Structure (SMILES) | AD: ADHD (probability that behavioral signature matches class) | AG: analgesic (probability that behavioral signature matches class) | AX: anxiolytic (probability that behavioral signature matches class) | CE: cognitive enhancer (probability that behavioral signature matches class) | DP: anti-depressant (probability that behavioral signature matches class) | HA: hallucinogen (probability that behavioral signature matches class) | MS: mood stabilizer (probability that behavioral signature matches class) | PS: anti-psychotic (probability that behavioral signature matches class) | SD: sedative hypnotic (probability that behavioral signature matches class) | UN: uncharacterized CNS activity (probability that behavioral signature matches class)
1 | Fc1cccc2c1[C@H]([C@@H]1CCCN1)OCC2 [Compound I-1, (S)-2-((R)-8-fluoroisochroman-1-yl)pyrrolidine] | + (LOQ ≤ + <5%) | ++ (5% ≤ ++ <25%) | ++ (5% ≤ ++ <25%) | ++ (5% ≤ ++ <25%) | ++ (5% ≤ ++ <25%) | + (LOQ ≤ + <5%) | ++ (5% ≤ ++ <25%) | +++ (25% ≤ +++ <50%) | ++ (5% ≤ ++ <25%) | ++ (5% ≤ ++ <25%)
2 | Fc1ccc2c(c1)[C@H]([C@@H]1CCCN1)OCC2 [Compound I-5, (2S)-2-((R)-7-fluoroisochroman-1-yl)pyrrolidine] | + (LOQ ≤ + <5%) | ++ (5% ≤ ++ <25%) | ++ (5% ≤ ++ <25%) | ++ (5% ≤ ++ <25%) | ++ (5% ≤ ++ <25%) | + (LOQ ≤ + <5%) | ++ (5% ≤ ++ <25%) | +++ (25% ≤ +++ <50%) | + (LOQ ≤ + <5%) | +++ (25% ≤ +++ <50%)
3 | Fc1ccc2c(c1)CCO[C@H]2[C@@H]1CCCN1 [Compound I-9, (S)-2-((R)-6-fluoroisochroman-1-yl)pyrrolidine] | + (LOQ ≤ + <5%) | ++ (5% ≤ ++ <25%) | ++ (5% ≤ ++ <25%) | ++ (5% ≤ ++ <25%) | ++ (5% ≤ ++ <25%) | + (LOQ ≤ + <5%) | ++ (5% ≤ ++ <25%) | +++ (25% ≤ +++ <50%) | ++ (5% ≤ ++ <25%) | +++ (25% ≤ +++ <50%)
4 | Clc1ccc2c(c1)[C@H]([C@@H]1CCCN1)OCC2 [Compound I-29, (S)-2-((R)-7-chloroisochroman-1-yl)pyrrolidine] | + (LOQ ≤ + <5%) | ++ (5% ≤ ++ <25%) | +++ (25% ≤ +++ <50%) | +++ (25% ≤ +++ <50%) | ++ (5% ≤ ++ <25%) | + (LOQ ≤ + <5%) | ++ (5% ≤ ++ <25%) | ++ (5% ≤ ++ <25%) | + (LOQ ≤ + <5%) | ++ (5% ≤ ++ <25%)
5 | Fc1cccc2c1[C@H]([C@@H]1CCN1)OCC2 [Compound I-83, (S)-2-((R)-8-fluoroisochroman-1-yl)azetidine] | ++ (5% ≤ ++ <25%) | ++ (5% ≤ ++ <25%) | ++ (5% ≤ ++ <25%) | +++ (25% ≤ +++ <50%) | ++ (5% ≤ ++ <25%) | + (LOQ ≤ + <5%) | ++ (5% ≤ ++ <25%) | +++ (25% ≤ +++ <50%) | + (LOQ ≤ + <5%) | + (LOQ ≤ + <5%)
6 | Fc1ccc2c(c1)CCO[C@H]2[C@@H]1CCN1 [Compound I-90, (S)-2-((R)-6-fluoroisochroman-1-yl)azetidine] | + (LOQ ≤ + <5%) | ++ (5% ≤ ++ <25%) | +++ (25% ≤ +++ <50%) | ++ (5% ≤ ++ <25%) | +++ (25% ≤ +++ <50%) | + (LOQ ≤ + <5%) | + (LOQ ≤ + <5%) | ++ (5% ≤ ++ <25%) | ++ (5% ≤ ++ <25%) | ++ (5% ≤ ++ <25%)
7 | Fc1cccc2c1CCO[C@@H]2[C@@H]1CCN1 [Compound I-94, (S)-2-((S)-5-fluoroisochroman-1-yl)azetidine] | + (LOQ ≤ + <5%) | ++ (5% ≤ ++ <25%) | ++ (5% ≤ ++ <25%) | ++ (5% ≤ ++ <25%) | +++ (25% ≤ +++ <50%) | + (LOQ ≤ + <5%) | + (LOQ ≤ + <5%) | +++ (25% ≤ +++ <50%) | + (LOQ ≤ + <5%) | ++ (5% ≤ ++ <25%)
8 | Fc1cccc2c1CCO[C@@H]2[C@H]1CCN1 [Compound I-96, (R)-2-((S)-5-fluoroisochroman-1-yl)azetidine] | + (LOQ ≤ + <5%) | +++ (25% ≤ +++ <50%) | ++ (5% ≤ ++ <25%) | ++ (5% ≤ ++ <25%) | +++ (25% ≤ +++ <50%) | + (LOQ ≤ + <5%) | ++ (5% ≤ ++ <25%) | +++ (25% ≤ +++ <50%) | + (LOQ ≤ + <5%) | + (LOQ ≤ + <5%)

Same assay, conditions: i.p. 15 min before behavioral test, most efficacious dose(s) of 3 doses

Row | Structure (SMILES) | XG: anxiogenic (probability that behavioral signature matches class)
9 | Fc1cccc2c1[C@H]([C@@H]1CCCN1)OCC2 [Compound I-1, (S)-2-((R)-8-fluoroisochroman-1-yl)pyrrolidine] | + (LOQ ≤ + <5%)
10 | Fc1ccc2c(c1)[C@H]([C@@H]1CCCN1)OCC2 [Compound I-5, (2S)-2-((R)-7-fluoroisochroman-1-yl)pyrrolidine] | + (LOQ ≤ + <5%)
11 | Fc1ccc2c(c1)CCO[C@H]2[C@@H]1CCCN1 [Compound I-9, (S)-2-((R)-6-fluoroisochroman-1-yl)pyrrolidine] | + (LOQ ≤ + <5%)
12 | Clc1ccc2c(c1)[C@H]([C@@H]1CCCN1)OCC2 [Compound I-29, (S)-2-((R)-7-chloroisochroman-1-yl)pyrrolidine] | + (LOQ ≤ + <5%)
13 | Fc1cccc2c1[C@H]([C@@H]1CCN1)OCC2 [Compound I-83, (S)-2-((R)-8-fluoroisochroman-1-yl)azetidine] | + (LOQ ≤ + <5%)
14 | Fc1ccc2c(c1)CCO[C@H]2[C@@H]1CCN1 [Compound I-90, (S)-2-((R)-6-fluoroisochroman-1-yl)azetidine] | + (LOQ ≤ + <5%)
15 | Fc1cccc2c1CCO[C@@H]2[C@@H]1CCN1 [Compound I-94, (S)-2-((S)-5-fluoroisochroman-1-yl)azetidine] | + (LOQ ≤ + <5%)
16 | Fc1cccc2c1CCO[C@@H]2[C@H]1CCN1 [Compound I-96, (R)-2-((S)-5-fluoroisochroman-1-yl)azetidine] | + (LOQ ≤ + <5%)
